Measured values taken from ChEMBL document CHEMBL1201862, “PubChem BioAssay data set” (2004).
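All cell lines were grown in 96-well plates and treated with compound for 48 hours. Abbreviation: GI50, concentration required for 50% inhibition of growth.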 The source made the active and inactive calls. Cut-off read from the data, not from the text of the source: active = GI50 up to about 1.1 µM and inactive = higher.

Experiments:
Assay in all cases: NCI tumour cell line growth inhibition, 48 h
NCI-H522 = test system: NCI-H522
KM12 = test system: KM12
DU-145 = test system: DU-145
LOX IMVI = test system: LOX IMVI
SK-MEL-28 = test system: SK-MEL-28
NCI-H226 = test system: NCI-H226
SNB-75 = test system: SNB-75
MOLT-4 = test system: MOLT-4
IGROV-1 = test system: IGROV-1
CCRF-CEM = test system: CCRF-CEM
CAKI-1 = test system: CAKI-1
MDA-N = test system: MDA-N
OVCAR-3 = test system: OVCAR-3
HCT-116 = test system: HCT-116
SNB-19 = test system: SNB-19
COLO 205 = test system: COLO 205
SF-539 = test system: SF-539
OVCAR-5 = test system: OVCAR-5
NCI/ADR-RES = test system: NCI/ADR-RES

SMILES	GI50 (NCI-H522)	GI50 (KM12)	GI50 (DU-145)	GI50 (LOX IMVI)	GI50 (SK-MEL-28)	GI50 (NCI-H226)	GI50 (SNB-75)	GI50 (MOLT-4)	GI50 (IGROV-1)	GI50 (CCRF-CEM)	GI50 (CAKI-1)	GI50 (MDA-N)	GI50 (OVCAR-3)	GI50 (HCT-116)	GI50 (SNB-19)	GI50 (COLO 205)	GI50 (SF-539)	GI50 (OVCAR-5)	GI50 (NCI/ADR-RES)
O=C(CCc1ccccc1)NCCc1ccc(O)c(O)c1	5.26 µM (inactive)	34.8 µM (inactive)	> 63.2 µM (inactive)	35.6 µM (inactive)	45.6 µM (inactive)	21.2 µM (inactive)	84.5 µM (inactive)	3.89 µM (inactive)	23.5 µM (inactive)	1.42 µM (inactive)	4.99 µM (inactive)	14.8 µM (inactive)	22.2 µM (inactive)	27.7 µM (inactive)	48.9 µM (inactive)	17 µM (inactive)	23.2 µM (inactive)	> 31.6 µM (inactive)	28.4 µM (inactive)
C/C(=C\CO)CC[C@@H]1[C@@]2(C)CCCC(C)(C)[C@@H]2CC[C@@]1(C)O	16.7 µM (inactive)	19.2 µM (inactive)	18 µM (inactive)	16.1 µM (inactive)	22.3 µM (inactive)	18.5 µM (inactive)	17.7 µM (inactive)	51.8 µM (inactive)	17 µM (inactive)	20.4 µM (inactive)	28.6 µM (inactive)	18.7 µM (inactive)	13.9 µM (inactive)	22 µM (inactive)	21.3 µM (inactive)	17.7 µM (inactive)	18.1 µM (inactive)	23.1 µM (inactive)	17.1 µM (inactive)
N#Cc1c(Nc2ccccc2)[n+]([O-])c2ccc(Cl)cc2[n+]1[O-]	2.16 µM (inactive)	4.36 µM (inactive)	16.1 µM (inactive)	3.1 µM (inactive)	12.9 µM (inactive)	4.67 µM (inactive)	25.9 µM (inactive)	3.65 µM (inactive)	1.78 µM (inactive)	2.92 µM (inactive)	5.09 µM (inactive)	11 µM (inactive)	2.99 µM (inactive)	3.88 µM (inactive)	5.51 µM (inactive)	2.33 µM (inactive)	5.22 µM (inactive)	15.8 µM (inactive)	2.7 µM (inactive)
C[n+]1c(-c2ccccc2)cc2/c(=C\c3ccccc3)c3ccccc3n21	0.363 µM (active)	0.738 µM (active)	2.54 µM (inactive)	1.25 µM (inactive)	0.871 µM (active)	0.418 µM (active)	0.422 µM (active)	1.73 µM (inactive)	1.09 µM (active)	0.582 µM (active)	2.94 µM (inactive)	0.948 µM (active)	1.34 µM (inactive)	1.25 µM (inactive)	0.731 µM (active)	0.339 µM (active)	0.908 µM (active)	3.4 µM (inactive)	14.6 µM (inactive)
NNC(=O)CSc1nc2ccc(I)cc2c(=O)n1Cc1ccccc1	14.9 µM (inactive)	23.5 µM (inactive)	31.2 µM (inactive)	15.6 µM (inactive)	28.4 µM (inactive)	18.8 µM (inactive)	22.9 µM (inactive)	15 µM (inactive)	24.4 µM (inactive)	3.89 µM (inactive)	15.3 µM (inactive)	31.8 µM (inactive)	18.4 µM (inactive)	18.4 µM (inactive)	23.3 µM (inactive)	21.5 µM (inactive)	19.7 µM (inactive)	20.4 µM (inactive)	40.6 µM (inactive)
CC1(C)C=C(/C=C2/N(S(=O)(=O)C(F)(F)F)C(/C=C3/N(S(=O)(=O)C(F)(F)F)C(C)(C#N)CC3(C)C)=CC2(C)C)N=C1/C=C1/CC(C)(C)C(=O)N1 (stereo unspecified)	5.96 µM (inactive)	5.77 µM (inactive)	33.9 µM (inactive)	17.9 µM (inactive)	51.2 µM (inactive)	22.7 µM (inactive)	61.5 µM (inactive)	2.84 µM (inactive)	7.24 µM (inactive)	2.84 µM (inactive)	11.4 µM (inactive)	21.4 µM (inactive)	7.62 µM (inactive)	3.73 µM (inactive)	52.5 µM (inactive)	14.2 µM (inactive)	24.8 µM (inactive)	57.5 µM (inactive)	23.3 µM (inactive)
COCCN(C(C)=O)C1CCC2(SCCS2)c2[nH]c3ccccc3c21 (stereo unspecified)	> 100 µM (inactive)	> 100 µM (inactive)	> 100 µM (inactive)	> 100 µM (inactive)	> 100 µM (inactive)	> 100 µM (inactive)	> 100 µM (inactive)	56.9 µM (inactive)	> 100 µM (inactive)	> 100 µM (inactive)	> 100 µM (inactive)	> 100 µM (inactive)	> 100 µM (inactive)	> 100 µM (inactive)	> 100 µM (inactive)	> 100 µM (inactive)	> 100 µM (inactive)	> 100 µM (inactive)	> 100 µM (inactive)
Cc1cc2c(cc1Cl)SC(NNC(=O)c1ccco1)=NS2(=O)=O	> 10 µM (inactive)	> 10 µM (inactive)	> 10 µM (inactive)	> 10 µM (inactive)	> 10 µM (inactive)	> 10 µM (inactive)	> 10 µM (inactive)	> 10 µM (inactive)	> 10 µM (inactive)	> 10 µM (inactive)	> 10 µM (inactive)	> 10 µM (inactive)	> 10 µM (inactive)	> 10 µM (inactive)	> 10 µM (inactive)	> 10 µM (inactive)	> 10 µM (inactive)	> 10 µM (inactive)	> 10 µM (inactive)
COc1cc2oc(=O)cc(C)c2cc1[N+](=O)[O-]	11.6 µM (inactive)	25.7 µM (inactive)	33.1 µM (inactive)	12.2 µM (inactive)	22.6 µM (inactive)	8.77 µM (inactive)	57.5 µM (inactive)	13.7 µM (inactive)	38.9 µM (inactive)	17.8 µM (inactive)	13.8 µM (inactive)	14.7 µM (inactive)	25.4 µM (inactive)	15.3 µM (inactive)	> 83.6 µM (inactive)	23.9 µM (inactive)	23.8 µM (inactive)	28.1 µM (inactive)	28.4 µM (inactive)
O=C1C=C(O)C(=O)c2c(O)ccc(O)c21	> 100 µM (inactive)	> 100 µM (inactive)	> 100 µM (inactive)	> 100 µM (inactive)	> 100 µM (inactive)	> 100 µM (inactive)	> 100 µM (inactive)	> 100 µM (inactive)	> 100 µM (inactive)	> 100 µM (inactive)	> 100 µM (inactive)	> 100 µM (inactive)	> 100 µM (inactive)	> 100 µM (inactive)	> 100 µM (inactive)	92 µM (inactive)	> 100 µM (inactive)	> 100 µM (inactive)	> 100 µM (inactive)
Cc1ccc(C(=O)NC2C(=O)NC(C(C)C)C(=O)N3CCCC3C(=O)N(C)CC(=O)N(C)C(C(C)C)C(=O)OC2C)c2c1Oc1c(c(C(=O)NC3C(=O)NC(C(C)C)C(=O)N4CCCC4C(=O)N(C)CC(=O)N(C)C(C(C)C)C(=O)OC3C)c3nc(-c4ccccc4)c(=O)oc3c1C)N2 (stereo unspecified)	0.0024 µM (active)	< 0.001 µM (active)	0.00422 µM (active)	< 0.001 µM (active)	< 0.001 µM (active)	0.00163 µM (active)	0.00101 µM (active)	0.00222 µM (active)	< 0.001 µM (active)	0.00255 µM (active)	0.00948 µM (active)	0.00348 µM (active)	0.01 µM (active)	< 0.001 µM (active)	< 0.001 µM (active)	0.0039 µM (active)	< 0.001 µM (active)	0.00216 µM (active)	0.189 µM (active)
OC(Cc1ccc2ccccc2n1)(C(F)(F)Cl)C(F)(F)Cl	> 10 µM (inactive)	> 10 µM (inactive)	> 10 µM (inactive)	> 10 µM (inactive)	> 10 µM (inactive)	> 10 µM (inactive)	> 10 µM (inactive)	> 10 µM (inactive)	> 10 µM (inactive)	> 10 µM (inactive)	> 10 µM (inactive)	> 10 µM (inactive)	> 10 µM (inactive)	> 10 µM (inactive)	> 10 µM (inactive)	> 10 µM (inactive)	> 10 µM (inactive)	> 10 µM (inactive)	> 10 µM (inactive)
COc1cc(-c2c3c([nH]c(=O)c2C#N)-c2cc([N+](=O)[O-])ccc2CCC3)cc(OC)c1OC	15.6 µM (inactive)	20.2 µM (inactive)	25.8 µM (inactive)	15.1 µM (inactive)	43.5 µM (inactive)	22.7 µM (inactive)	21.7 µM (inactive)	16 µM (inactive)	33.1 µM (inactive)	21.7 µM (inactive)	26.9 µM (inactive)	21.1 µM (inactive)	15.5 µM (inactive)	18.8 µM (inactive)	30.8 µM (inactive)	22 µM (inactive)	24.3 µM (inactive)	23.7 µM (inactive)	42.4 µM (inactive)
COc1ccc(-c2oc3ccc(C)cc3c(=O)c2O)cc1	> 100 µM (inactive)	> 100 µM (inactive)	> 100 µM (inactive)	> 100 µM (inactive)	> 100 µM (inactive)	> 100 µM (inactive)	76.7 µM (inactive)	58.6 µM (inactive)	> 100 µM (inactive)	> 100 µM (inactive)	> 100 µM (inactive)	> 100 µM (inactive)	> 100 µM (inactive)	52 µM (inactive)	44.4 µM (inactive)	> 100 µM (inactive)	43.4 µM (inactive)	> 100 µM (inactive)	35.4 µM (inactive)
